The values that follow come from US20220089612A1, “HETEROCYCLIC COMPOUNDS AS PRMT5 INHIBITORS” (ANGEX PHARMACEUTICAL, INC., priority 2017, published 2022).

PRMT5:MEP50, sequence (O14744 whole entry, species assumed): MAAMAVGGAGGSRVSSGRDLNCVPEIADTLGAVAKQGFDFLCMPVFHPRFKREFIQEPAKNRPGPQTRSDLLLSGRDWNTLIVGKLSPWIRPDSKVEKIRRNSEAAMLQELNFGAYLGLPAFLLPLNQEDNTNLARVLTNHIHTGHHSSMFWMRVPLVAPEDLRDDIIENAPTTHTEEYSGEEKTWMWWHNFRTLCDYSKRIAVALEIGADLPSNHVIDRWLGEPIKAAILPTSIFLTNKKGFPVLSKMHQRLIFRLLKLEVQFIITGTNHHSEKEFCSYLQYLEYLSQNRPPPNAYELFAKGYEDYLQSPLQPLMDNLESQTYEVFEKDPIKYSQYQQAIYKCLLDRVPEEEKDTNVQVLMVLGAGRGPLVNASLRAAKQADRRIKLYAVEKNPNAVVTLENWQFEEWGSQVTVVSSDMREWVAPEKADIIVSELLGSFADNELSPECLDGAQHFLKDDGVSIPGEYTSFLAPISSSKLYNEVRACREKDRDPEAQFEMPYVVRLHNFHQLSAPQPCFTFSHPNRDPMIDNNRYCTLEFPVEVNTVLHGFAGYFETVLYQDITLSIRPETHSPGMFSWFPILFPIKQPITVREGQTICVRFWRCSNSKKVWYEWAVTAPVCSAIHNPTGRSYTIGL
PRMT5:MEP50, sequence (Q9BQA1 whole entry partner, species assumed): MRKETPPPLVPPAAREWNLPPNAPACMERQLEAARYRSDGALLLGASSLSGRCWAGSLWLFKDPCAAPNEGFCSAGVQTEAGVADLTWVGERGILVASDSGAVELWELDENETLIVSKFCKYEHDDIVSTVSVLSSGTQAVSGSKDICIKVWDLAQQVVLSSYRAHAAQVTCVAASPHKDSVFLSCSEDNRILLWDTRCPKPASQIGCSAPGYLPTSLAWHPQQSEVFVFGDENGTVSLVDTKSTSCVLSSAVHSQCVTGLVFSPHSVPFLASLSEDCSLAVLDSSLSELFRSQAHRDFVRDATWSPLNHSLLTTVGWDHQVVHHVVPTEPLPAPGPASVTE

For the experiment, the target named is PRMT5:MEP50 (Homo sapiens, UniProt O14744). In words: PRMT5:MEP50 Flashplate Assay. In kind it is biochemical. The note with it: PRMT5:MEP50 inhibitory activity; 3H-SAM, 2 h at room temperature, top concentration 10 μM. As for the experimental part:
PRMT5:MEP50 Flashplate Assay:
Ten-point curves of inhibitor compounds were made using serial threefold dilutions in DMSO (the final top concentration of compound was 10 μM, 1% DMSO). Reaction mixture consisting of 50 mM Tris-HCl (pH 8.5), 0.002% Tween 20, 0.005% BSA (Bovine Serum Albumin), 1 mM TCEP, and 1% DMSO. Substrates are freshly prepared in reaction buffer. PRMT5:MEP50 was then added into substrate solution and mixed gently. Inhibitor compound was then added and incubated for 30 min at room temperature. ^3H-SAM was added to initiate the reaction. Reactions were incubated for 2 h at room temperature and quenched with 0.5 mM SAM (S-adenosyl-L-Methionine) in assay buffer. An aliquot of the reaction mix was transferred to a streptavidin-coated 384-well FlashPlate (PerkinElmer). After an incubation time of 1 h, the plate was washed and then read on a TopCount (PerkinElmer) to measure the amount of tritium incorporated into the peptide substrate. IC50 was calculated using conventional curve-fitting method.
A word on the IC50: it is the concentration that inhibits the measured activity by half. The low end stands for greater potency in that assay, the high end for weaker potency in that assay. Turning to `NC1=Nc2cc(CC[C@H]3C[C@@H](n4ccc5c(N)ncnc54)[C@H](O)[C@@H]3O)ccc2[C@@H]2C[C@H]12` (single isomer, unassigned) [Compound 1-10], the IC50 is below 1 nM.

On to `NC1=Nc2cc(CC[C@H]3C[C@@H](n4ccc5c(N)ncnc54)[C@H](O)[C@@H]3O)ccc2[C@H]2C[C@@H]12` (single isomer, unassigned) [Compound 1-11], for which the IC50 is below 1 nM.

Molecule `Nc1ncnc2c1ccn2[C@@H]1C[C@H](CCc2ccc3cc4c(nc3c2)NCC4)[C@@H](O)[C@H]1O` [Compound 1-7, (1R,2S,3R,5S)-3-(4-amino-7H-pyrrolo[2,3-d]pyrimidin-7-yl)-5-(2-(2,3-dihydro-1H-pyrrolo[2,3-b]quinolin-7-yl)ethyl)cyclopentane-1,2-diol] displayed an IC50 below 1 nM.

As for `NC1=Nc2cc(CC[C@H]3C[C@@H](n4ccc5c(N)ncnc54)[C@H](O)[C@@H]3O)ccc2C2=NCCN12` [Compound 1-8, (1S,2R,3S,5R)-3-(2-(5-amino-2,3-dihydroimidazo[1,2-c]quinazolin-8-yl)ethyl)-5-(4-amino-7H-pyrrolo[2,3-d]pyrimidin-7-yl)cyclopentane-1,2-diol], the IC50 is below 1 nM.

`Nc1ncnc2c1ccn2[C@@H]1C[C@H](CCc2ccc3c(c2)nc(N)n2ccnc32)[C@@H](O)[C@H]1O` [Compound 1-9, (1R,2S,3R,5S)-3-(4-amino-7H-pyrrolo[2,3-d]pyrimidin-7-yl)-5-(2-(5-aminoimidazo-[1,2-c]quinazolin-8-yl)ethyl)cyclopentane-1,2-diol] came in with an IC50 below 1 nM.

Regarding `Nc1ncnc2c1ccn2[C@@H]1C[C@H](CCc2ccc3cc4cn[nH]c4nc3c2)[C@@H](O)[C@H]1O` [Compound 1-12, (1S,2R,3S,5R)-3-(2-(1H-pyrazolo[3,4-b]quinolin-7-yl)ethyl)-5-(4-amino-7H-pyrrolo-[2,3-d]pyrimidin-7-yl)cyclopentane-1,2-diol], the IC50 lay in the range of 1 to 100 nM.

The molecule `Nc1ncnc2c1ccn2[C@@H]1C[C@H](CCc2ccc3cc4c(nc3c2)NOCC4)[C@@H](O)[C@H]1O` [Compound 1-13, (1R,2S,3R,5S)-3-(4-amino-7H-pyrrolo[2,3-d]pyrimidin-7-yl)-5-(2-(3,4-dihydro-1H-[1,2]oxazino[3,4-b]quinolin-8-yl)ethyl)cyclopentane-1,2-diol] yielded an IC50 below 1 nM.

`Nc1ncnc2c1ccn2[C@@H]1C[C@H](CCc2ccc3cc4c(nc3c2)NOC4)[C@@H](O)[C@H]1O` [Compound 1-14, (1R,2S,3R,5S)-3-(4-amino-7H-pyrrolo[2,3-d]pyrimidin-7-yl)-5-(2-(1,3-dihydroisoxazolo[3,4-b]quinolin-7-yl)ethyl)cyclopentane-1,2-diol] yielded an IC50 below 1 nM.

Consider `C[C@H]1Cc2cc3ccc(CC[C@H]4C[C@@H](n5ccc6c(N)ncnc65)[C@H](O)[C@@H]4O)cc3nc2NO1` [Compound 1-15, (1R,2S,3R,5S)-3-(4-amino-7H-pyrrolo[2,3-d]pyrimidin-7-yl)-5-(2-((S)-3-methyl-3,4-dihydro-1H-[1,2]oxazino[3,4-b]quinolin-8-yl)ethyl)cyclopentane-1,2-diol], for which the IC50 lay within 1 to 100 nM.

As for `C[C@@H]1Cc2cc3ccc(CC[C@H]4C[C@@H](n5ccc6c(N)ncnc65)[C@H](O)[C@@H]4O)cc3nc2NO1` [Compound 1-16, (1R,2S,3R,5S)-3-(4-amino-7H-pyrrolo[2,3-d]pyrimidin-7-yl)-5-(2-((R)-3-methyl-3,4-dihydro-1H-[1,2]oxazino[3,4-b]quinolin-8-yl)ethyl)cyclopentane-1,2-diol], the IC50 was below 1 nM.

`Nc1ncnc2c1ccn2[C@@H]1C[C@H](CCc2ccc3cc4c(nc3c2)NOCCC4)[C@@H](O)[C@H]1O` [Compound 1-17, (1R,2S,3R,5S)-3-(4-amino-7H-pyrrolo[2,3-d]pyrimidin-7-yl)-5-(2-(1,3,4,5-tetrahydro-[1,2]oxazepino[3,4-b]quinolin-9-yl)ethyl)cyclopentane-1,2-diol] returned an IC50 of 1 to 100 nM.

On to `Nc1ncnc2c1ccn2[C@@H]1C[C@H](CCc2ccc3cc4nc[nH]c4nc3c2)[C@@H](O)[C@H]1O` [Compound 1-18, (1S,2R,3S,5R)-3-(2-(3H-imidazo[4,5-b]quinolin-6-yl)ethyl)-5-(4-amino-7H-pyrrolo[2,3-d]pyrimidin-7-yl)cyclopentane-1,2-diol], for which the IC50 is below 1 nM.

Regarding `Nc1ncnc2c1ccn2[C@@H]1C[C@H](CCc2ccc3cc4nn[nH]c4nc3c2)[C@@H](O)[C@H]1O` [Compound 1-19, (1S,2R,3S,5R)-3-(2-(3H-[1,2,3]triazolo[4,5-b]quinolin-6-yl)ethyl)-5-(4-amino-7H-pyrrolo[2,3-d]pyrimidin-7-yl)cyclopentane-1,2-diol], the IC50 was in the range of 1 to 100 nM.

In turn, `C[C@H]1Cc2cc3ccc(CC[C@H]4C[C@@H](n5ccc6c(N)ncnc65)[C@H](O)[C@@H]4O)cc3nc2N1` [Compound 1-20, (1R,2S,3R,5S)-3-(4-amino-7H-pyrrolo[2,3-d]pyrimidin-7-yl)-5-(2-((S)-2-methyl-2,3-dihydro-1H-pyrrolo[2,3-b]quinolin-7-yl)ethyl)cyclopentane-1,2-diol] displayed an IC50 below 1 nM.

Molecule `C[C@@H]1Cc2cc3ccc(CC[C@H]4C[C@@H](n5ccc6c(N)ncnc65)[C@H](O)[C@@H]4O)cc3nc2N1` [Compound 1-21, (1R,2S,3R,5S)-3-(4-amino-7H-pyrrolo[2,3-d]pyrimidin-7-yl)-5-(2-((R)-2-methyl-2,3-dihydro-1H-pyrrolo[2,3-b]quinolin-7-yl)ethyl)cyclopentane-1,2-diol] returned an IC50 below 1 nM.

Take `Nc1ncnc2c1ccn2[C@@H]1C[C@H](CCc2ccc3cc4c(nc3c2)N[C@H](C2CC2)C4)[C@@H](O)[C@H]1O` [Compound 1-22, (1R,2S,3R,5S)-3-(4-amino-7H-pyrrolo[2,3-d]pyrimidin-7-yl)-5-(2-((S)-2-cyclopropyl-2,3-dihydro-1H-pyrrolo[2,3-b]quinolin-7-yl)ethyl)cyclopentane-1,2-diol]: the IC50 is below 1 nM.

Molecule `Nc1ncnc2c1ccn2[C@@H]1C[C@H](CCc2ccc3cc4c(nc3c2)N[C@@H](C2CC2)C4)[C@@H](O)[C@H]1O` [Compound 1-23, (1R,2S,3R,5S)-3-(4-amino-7H-pyrrolo[2,3-d]pyrimidin-7-yl)-5-(2-((R)-2-cyclopropyl-2,3-dihydro-1H-pyrrolo[2,3-b]quinolin-7-yl)ethyl)cyclopentane-1,2-diol] registered an IC50 below 1 nM.

For `CC[C@@H]1Cc2cc3ccc(CC[C@H]4C[C@@H](n5ccc6c(N)ncnc65)[C@H](O)[C@@H]4O)cc3nc2N1` [Compound 1-24, (1R,2S,3R,5S)-3-(4-amino-7H-pyrrolo[2,3-d]pyrimidin-7-yl)-5-(2-((R)-2-ethyl-2,3-dihydro-1H-pyrrolo[2,3-b]quinolin-7-yl)ethyl)cyclopentane-1,2-diol], the IC50 was below 1 nM.

Take `CC(C)[C@@H]1Cc2cc3ccc(CC[C@H]4C[C@@H](n5ccc6c(N)ncnc65)[C@H](O)[C@@H]4O)cc3nc2N1` [Compound 1-25, (1R,2S,3R,5S)-3-(4-amino-7H-pyrrolo[2,3-d]pyrimidin-7-yl)-5-(2-((S)-2-isopropyl-2,3-dihydro-1H-pyrrolo[2,3-b]quinolin-7-yl)ethyl)cyclopentane-1,2-diol]: the IC50 was below 1 nM.

`CC(C)(C)[C@@H]1Cc2cc3ccc(CC[C@H]4C[C@@H](n5ccc6c(N)ncnc65)[C@H](O)[C@@H]4O)cc3nc2N1` [Compound 1-26, (1R,2S,3R,5S)-3-(4-amino-7H-pyrrolo[2,3-d]pyrimidin-7-yl)-5-(2-((S)-2-(tert-butyl)-2,3-dihydro-1H-pyrrolo[2,3-b]quinolin-7-yl)ethyl)cyclopentane-1,2-diol] returned an IC50 below 1 nM.

Turning to `C=CC[C@@H]1Cc2cc3ccc(CC[C@H]4C[C@@H](n5ccc6c(N)ncnc65)[C@H](O)[C@@H]4O)cc3nc2N1` [Compound 1-27, (1S,2R,3S,5R)-3-(2-((R)-2-allyl-2,3-dihydro-1H-pyrrolo[2,3-b]quinolin-7-yl)ethyl)-5-(4-amino-7H-pyrrolo[2,3-d]pyrimidin-7-yl)cyclopentane-1,2-diol], the IC50 was below 1 nM.

In the case of `Nc1ncnc2c1ccn2[C@@H]1C[C@H](CCc2ccc3cc4c(nc3c2)N[C@H](c2ccccc2)C4)[C@@H](O)[C@H]1O` [Compound 1-28, (1R,2S,3R,5S)-3-(4-amino-7H-pyrrolo[2,3-d]pyrimidin-7-yl)-5-(2-((S)-2-phenyl-2,3-dihydro-1H-pyrrolo[2,3-b]quinolin-7-yl)ethyl)cyclopentane-1,2-diol], the IC50 is 1 to 100 nM.

`Nc1ncnc2c1ccn2[C@@H]1C[C@H](CCc2ccc3cc4c(nc3c2)N[C@H](CC2CC2)C4)[C@@H](O)[C@H]1O` [Compound 1-29, (1R,2S,3R,5S)-3-(4-amino-7H-pyrrolo[2,3-d]pyrimidin-7-yl)-5-(2-((R)-2-(cyclopropylmethyl)-2,3-dihydro-1H-pyrrolo[2,3-b]quinolin-7-yl)ethyl)cyclopentane-1,2-diol] returned an IC50 of 1 to 100 nM.

As to `CC1(C)Cc2cc3ccc(CC[C@H]4C[C@@H](n5ccc6c(N)ncnc65)[C@H](O)[C@@H]4O)cc3nc2N1` [Compound 1-30, (1R,2S,3R,5S)-3-(4-amino-7H-pyrrolo[2,3-d]pyrimidin-7-yl)-5-(2-(2,2-dimethyl-2,3-dihydro-1H-pyrrolo[2,3-b]quinolin-7-yl)ethyl)cyclopentane-1,2-diol], the IC50 was below 1 nM.

`Nc1ncnc2c1ccn2[C@@H]1C[C@H](CCc2ccc3cc4c(nc3c2)NC2(CC2)C4)[C@@H](O)[C@H]1O` [Compound 1-31, (1R,2S,3R,5S)-3-(4-amino-7H-pyrrolo[2,3-d]pyrimidin-7-yl)-5-(2-(1′,3′-dihydrospiro[cyclopropane-1,2′-pyrrolo[2,3-b]quinolin]-7′-yl)ethyl)cyclopentane-1,2-diol] gave an IC50 below 1 nM.
